Measurements taken from article PMC9455983 (International Journal of Molecular Sciences, 2022).
Like-named read-outs stand apart in the source and are kept apart here.

Tests used:
mu-opioid receptor (MOR) = target: T1, mu-opioid receptor (MOR) (Rattus norvegicus, UniProt P33535); assay: MOR radioligand competition binding assay ([3H]-DAMGO); details: Mu screening results
T1 construct: Rat cortices were homogenized using 50 mM Tris, pH 7.4, and centrifuged at 16,500 rpm for 10 min; from tissue; host or cells: rat cortex membranes
Method: MOR binding assay: Rat cortices were homogenized using 50 mM Tris, pH 7.4, and centrifuged at 16,500 rpm for 10 min. The pellets were resuspended in fresh buffer and incubated at 37 °C for 30 min. Following incubation, the suspensions were centrifuged as before, the resulting pellets were resuspended in 100 volumes of 50 mM Tris, pH 7.4 plus 2 mg/mL bovine serum and the suspensions combined. Each assay tube contained 0.5 mL of membrane suspension, 2 nM [^3H]-DAMGO, and 0.02 mg/mL mixture in a total volume of 0.65 mL [13, 45, 53, 55].
(§1) All three binding assays were terminated by filtration through GF/B filters, soaked in 5 mg/mL bovine serum albumin, 50 mM Tris, pH 7.4, on a Tomtec Mach II Harvester 96. The filters were subsequently washed with 6 mL of assay buffer. Bound radioactivity was counted on a Wallac Betaplate Liquid Scintillation Counter. Experiments were conducted using two replicates and repeated twice. Values in Scheme 2 represent the mean ± SD of two experiments with two replicates in each test.

[1] = target: T2, kappa-opioid receptor (KOR) (Cavia porcellus, UniProt P41144); assay: KOR radioligand competition binding assay ([3H]U69,593); parameters: species or system guinea pig; details: Kappa screening results
T2 construct: Guinea pig cortices and cerebella were homogenized using 50 mM Tris, pH 7.4; from tissue; host or cells: guinea pig cortex and cerebellum membranes
Method: KOR binding assay: Guinea pig cortices and cerebella were homogenized using 50 mM Tris, pH 7.4, 10 mM MgCl2-6H2O, […] centrifuged and incubated as above. Each assay tube contained 2 nM [^3H]U69,593. Assay tubes were incubated for 2 h at 25 °C. Unlabeled U50,488 was used as a competitor to generate a standard curve and determine nonspecific binding.
as §1

[2] = target: T3, delta-opioid receptor (DOR) (Rattus norvegicus, UniProt P33533); assay: DOR radioligand competition binding assay ([3H]-DPDPE); details: Delta screening results
T3 construct: Rat cortices were homogenized using 50 mM Tris, pH 7.4, 10 mM MgCl2-6H2O, 200 µM PMSF; from tissue; host or cells: rat cortex membranes
Method: DOR binding assay: Rat cortices were homogenized using 50 mM Tris, pH 7.4, 10 mM MgCl2-6H2O, 200 µM PMSF, centrifuged and incubated as above. Each assay tube contained 2 nM [^3H]-DPDPE. Assay tubes were incubated for 2.5 h at 25 °C. Unlabeled DPDPE was used as a competitor to generate a standard curve and determine nonspecific binding.
as §1

[3] = experiment 1, unit inferred, read-out: Ki (Exp 1)
[4] = experiment 2, unit inferred, read-out: Ki (Exp 2)
[5] = mean of Exp 1 and Exp 2, unit inferred, read-out: MEAN (Ki)
[6] = mean of two experiments, read-out: Ki
[7] = first Ki column, unit not printed (apparently M), read-out: Ki (first column)
[8] = mean of both Ki, unit inferred, read-out: MEAN (Ki)
[9] = second Ki column, unit not printed (apparently M), read-out: Ki (second column)

| SMILES | Ki (mu-opioid receptor (MOR); [3]) [nM] | Ki (mu-opioid receptor (MOR); [4]) [nM] | Ki (mu-opioid receptor (MOR); [5]) [nM] | Ki (mu-opioid receptor (MOR); [6]) [nM] | Ki [1, 3] [nM] | Ki [1, 4] [nM] | Ki [1, 5] [nM] | Ki [1, 6] [nM] | Ki [2, 7] [nM] | Ki [2, 8] [nM] | Ki [2, 6] [nM] | Ki [2, 9] [nM] |
| --- | --- | --- | --- | --- | --- | --- | --- | --- | --- | --- | --- | --- |
| Cc1cc(O)cc(C)c1C[C@H]1CNC(=N)N1C[C@H](CC(C)C)N1C[C@H](CC(C)C)NC1=N [1968-59] | 166 | 156 | 161 | 161 | 223 | 313 | 268 | 268 | 3840 | 4210 | 4210 | 4580 |
| Cc1cc(O)cc(C)c1C[C@H]1CN([C@@H](Cc2ccccc2)CN2C(=N)NC[C@@H]2C)C(=N)N1 [1968-36] | 167 | 124 | 146 | 146 | 1030 | 1320 | 1170 | 1170 | 3710 | 3550 | 3550 | 3400 |
| Cc1cc(O)cc(C)c1C[C@H]1CNC(=N)N1C[C@H](Cc1c(C)cc(O)cc1C)N1C[C@H](Cc2ccc(O)cc2)NC1=N [1968-62] | 64.2 | 78.4 | 71.3 | 71 | 2300 | 2340 | 2320 | 2320 | 1530 | 1280 | 1280 | 1020 |
| CC(C)C[C@H]1CN([C@@H](CC(C)C)CN2C(=N)NC[C@@H]2Cc2ccccc2)C(=N)N1 [1968-11] | 2980 | 3040 | 3010 | 3010 | 13900 | 8930 | 11400 | 11400 | 26400 | 58600 | 58600 | 90900 |
| C[C@H]1CNC(=N)N1C[C@H](Cc1ccc(O)cc1)N1C[C@H](Cc2ccc(O)cc2)NC1=N [1968-38] | 174 | 195 | 184 | 184 | 1690 | 1960 | 1820 | 1820 | 4270 | 3800 | 3800 | 3330 |
| CC(C)C[C@H]1CN([C@@H](Cc2ccc(O)cc2)CN2C(=N)NC[C@@H]2Cc2ccc(O)cc2)C(=N)N1 [1968-23] | 2350 | 2270 | 2310 | 2310 | 9520 | 7360 | 8440 | 8440 | – | – | – | – |
| N=C1NC[C@H](Cc2ccccc2)N1C[C@H](Cc1ccccc1)N1C[C@H](Cc2ccccc2)NC1=N [1968-65] | 2370 | 2830 | 2600 | 2600 | 16600 | 15200 | 15900 | 15900 | 7340 | 7320 | 7320 | 7290 |
| N=C1NC[C@H](Cc2ccc(O)cc2)N1C[C@H](Cc1ccccc1)N1C[C@H](Cc2ccccc2)NC1=N [1968-17] | 1070 | 741 | 907 | 907 | 6270 | 6840 | 6550 | 6550 | 7930 | 7100 | 7100 | 6270 |
| N=C1NC[C@H](Cc2ccc(O)cc2)N1C[C@H](Cc1ccccc1)N1C[C@H](Cc2ccc(O)cc2)NC1=N [1968-18] | 403 | 401 | 402 | 402 | 3470 | 3630 | 3550 | 3550 | 7570 | 8080 | 8080 | 8580 |
